Data set [1] concerns NSC-34/IFRS1 co-culture. The data set is described as follows: Mitochondrial metabolism at Peripheral Nervous System level. The data set is classed as cell-based, rat. The note with it: added to NAC 12 mM, VitD 100 nM, G 5 mM. On the procedure:
In order to recreate a peripheral nervous system in vitro, a myelinating co-culture system was used with an NSC-34 motor neuron-like cell line and an IFRS1 adult rat Schwann cell line according to a protocol reported in the literature. IFRS1 cells were seeded on 100-mm plastic discs (Greiner Bio-One GmbH, Frickenhausen, Germany, 664-160-013) at an approximate density of 2×10^4/cm^2 and maintained in DMEM containing 5% FBS, recombinant human eregulin-β (EMD Millipore, Billerica, MA, USA) 20 ng/mL, forskolin (Sigma, St. Louis, MO, USA) 5 μM and antifungal antibiotic solution (penicillin 100 U/mL, streptomycin 100 μg/mL and amphotericin 250 ng/mL; Sigma). NSC-34 cells were seeded on 100-mm plastic discs at an approximate density of 1×10^4/cm^2 and maintained in DMEM containing antibiotic antifungal solution and 5% FBS. At semi-confluence, cells were detached from the discs using 0.05% trypsin/EDTA 0.53 mM solution, suspended in DMEM/F12 Ham containing 5% FBS in a 50 mL polypropylene conical tube, and reseeded on Aclar fluorocarbon coverslips coated with poly-L-lysine/laminine, 12-well culture plates coated with type I collagen, and 2-well glass chamber slides coated with type I collagen at an approximate density of 2×10^3/cm^2. […]

Data set [2] relates to ERK/MAPK. Conditions: liver level; NAC 12 mM, VitD 100 nM, G 5 mM, LA 50 μM. As for the experimental part:
Human epithelial cells (HepG2) were purchased from ATCC, and cultured in DMEM supplemented with 10% FBS, L-glutamine 2 mM and 1% penicillin-streptomycin, at 37° C., 5% CO2. […] ERK/MAPK activity was measured by InstantOne™ ELISA (Thermo Fisher) on cell lysates following the manufacturer's instructions. The strips were measured by a spectrometer (VICTOR X4, multiwell plate reader) at 450 nm. Results were expressed as mean absorbance (%) compared with control.

Data set [3] has as its system HepG2. The data set is described as follows: Hepatic absorption test. The data set is classed as in vitro ADME, Human. The note with it: NAC 12 mM, VitD 100 nM, G 5 mM, LA 50 μM. On the procedure: Human epithelial cells (HepG2) were purchased from ATCC, and cultured in DMEM supplemented with 10% FBS, L-glutamine 2 mM and 1% penicillin-streptomycin, at 37° C., 5% CO2.

Data set [4] concerns GTL-16 cell line. Conditions: pre-digested model, 2, 3, 4 and 6 hours; NAC 12 mM, VitD 100 nM, G 5 mM.
Procedure: The GTL-16 cell line, donated by the Laboratory of Histology, University of Eastern Piedmont (Italy), is a clonal line derived from a poorly differentiated gastric carcinoma cell line widely used as a model of gastric epithelial cells. Cells were cultured in Dulbecco's Modified Eagle medium (DMEM, Merck Life Science, Rome, Italy) supplemented with 10% fetal bovine serum (Fetal Bovine Serum, FBS), 1% penicillin-streptomycin, in an incubator at 37° C., 5% CO2. 1×10^4 cells were used to explore cell viability by MTT.
At the end of stimulation, cells were incubated with 1% MTT dye for 2 h at 37° C. in an incubator, 5% CO2 and 95% humidity, and then purple formazan crystals were dissolved in an equal volume of MTT solubilization solution.

As to Vitamin D [VitD], in data set [1], the mitochondrial activity result was “contributes to increased mitochondrial activity”.

`N[C@@H](CCC(=O)N[C@@H](CS)C(=O)NCC(=O)O)C(=O)O` [glutathione, (2S)-2-amino-5-[[(2R)-1-(carboxymethylamino)-1-oxo-3-sulfanylpropan-2-yl]amino]-5-oxopentanoic acid]: in data set [2], the ERK activity entry was “further enhances the conservation of these biological activities”. In addition, the hepatic absorption result in data set [3] is recorded as “further increases hepatic absorption”. Further, in data set [4], the cell viability result is “contributes to increased cell viability”.

The values are drawn from patent US20250177338A1 (URIACH ITALY S.R.L., priority 2022, published 2025).
